Assay results taken from patent US20070015663A1, “Growth regulator and process for growth regulation of plant” (SUPER BLAST SYSTEMS CO., LTD., priority 2001, published 2007).
Where two headings read alike, the source gives them in different places.

Columns and labels:
[1] = test system: Veronica persica Poir; assay: Germination and seedling growth of Veronica persica Poir with test solution; type: in vivo
Procedure: (§1) Absorbent cotton was spread on a 4.5 cm dish, and thereto was added 10 ml of a test solution. Seeds (10 seeds) were added thereto, grown at 23° C. for 4 days in the dark, and thereafter cultured at 23° C. for 3 days in the light (about 3000 lux).
FIG. 10 is a drawing illustrating the state of seeds within each of the dishes similarly to FIG. 1, and each control is shown. […] In addition, the lengths of each embryonic axis shoots and root are indicated.
(§2) Indole-3-acetate (IAA) was used as the auxin.

[2] = test system: perennial ryegrass
Procedure: as §1
FIG. 7 is a drawing illustrating the state of seeds within each of the dishes similarly to FIG. 1. FIG. 8 is a drawing comparing the length of each shoot and that of each root similarly to FIG. 2.

[3] = test system: rice; settings: 23° C. 4 days dark + 3 days light
Procedure: as §1
FIG. 1 is a drawing illustrating the state of seeds within each of the dishes. FIG. 2 is a drawing comparing the length of each shoot and the length of each root. […] For reference, the length of the label is 5 mm.

[4] = test system: tomato; assay: Germination and seedling growth of tomato on absorbent cotton with test solution; type: in vivo, tomato (Lycopersicon esculentum)
Procedure: as §1
FIG. 3 is a drawing illustrating the state of germination within each of the dishes similarly to FIG. 1. FIG. 4 is a drawing comparing the length of each embryonic axis (shoot) and that of each root similarly to FIG. 2.
FIG. 11 is a drawing illustrating the state of seeds within each of the dishes similarly to FIG. 1, and each control is shown. […] In addition, the lengths of each shoot and root are presented.
as §2

[5] = test system: lettuce
Procedure: as §1

[6] = test system: radish
Procedure: as §1

[7] = test system: lettuce; remark: listed apart in the source
Procedure: For control 1, absorbent cotton was spread on a 4.5 cm dish, and thereto was added 10 ml of water. Seeds (10 seeds) were added thereto, grown at 23° C. for 4 days in the dark, and thereafter cultured at 23° C. for 3 days in the light (about 3000 lux).

[8] = volcanic ash+0.1% NaHCO3 (100 g and 0.1% NaHCO3 solution 28 g)
[9] = volcanic ash+1% NaHCO3 (100 g and 1% NaHCO3 solution 28 g)
[10] = volcanic ash+10% NaHCO3 (100 g and saturated sodium bicarbonate solution 28 g)

O=C([O-])O.[Na+] [NaHCO3, sodium bicarbonate]
length of the root ([1]; in vivo): 9 mm | length of the shoot ([1]; in vivo): 8 mm | length of the root ([2]; NaHCO3 0.003%): 25.3±0.9 mm | length of the shoot ([2]; NaHCO3 0.003%): 24.7±0.3 mm | length of the root ([2]; NaHCO3 0.01%): 27.3±1.5 mm | length of the shoot ([2]; NaHCO3 0.01%): 42.0±0.6 mm | length of the root ([2]; NaHCO3 0.03%): 26.0±0.6 mm | length of the shoot ([2]; NaHCO3 0.03%): 44.3±1.5 mm | length of the root ([2]; NaHCO3 0.1%): 28.0±1.5 mm | length of the shoot ([2]; NaHCO3 0.1%): 55.7±0.7 mm | length of the root ([2]; NaHCO3 0.3%): 4.7±0.3 mm | length of the shoot ([2]; NaHCO3 0.3%): 19.0±0.6 mm | length of the root ([2]; NaHCO3 1%): 0±0 mm | length of the shoot ([2]; NaHCO3 1%): 0±0 mm | length of the root ([3]; NaHCO3 0.003%): 32.0±9.3 mm | length of the shoot ([3]; NaHCO3 0.003%): 11.0±1.0 mm | length of the root ([3]; NaHCO3 0.01%): 18.0±9.7 mm | length of the shoot ([3]; NaHCO3 0.01%): 10.0±0 mm | length of the root ([3]; NaHCO3 0.03%): 23.7±0.9 mm | length of the shoot ([3]; NaHCO3 0.03%): 15.0±1.0 mm | length of the root ([3]; NaHCO3 0.1%): 20.7±2.3 mm | length of the shoot ([3]; NaHCO3 0.1%): 13.3±0.9 mm | length of the root ([3]; NaHCO3 0.3%): 2.3±0.3 mm | length of the shoot ([3]; NaHCO3 0.3%): 7.3±1.5 mm | length of the root ([3]; NaHCO3 1%): 0±0 mm | length of the shoot ([3]; NaHCO3 1%): 3.3±0.3 mm | germination ([4]; in vivo): germination does not occur | length of the shoot ([4]; in vivo): 5 mm | length of the root ([5]; NaHCO3 0.003%): 18.7±4.7 mm | length of the shoot ([5]; NaHCO3 0.003%): 14.0±0.6 mm | length of the root ([5]; NaHCO3 0.01%): 21.0±0.6 mm | length of the shoot ([5]; NaHCO3 0.01%): 24.3±0.9 mm | length of the root ([5]; NaHCO3 0.03%): 14.3±1.9 mm | length of the shoot ([5]; NaHCO3 0.03%): 24.3±0.3 mm | length of the root ([5]; NaHCO3 0.1%): 11.0±0.6 mm | length of the shoot ([5]; NaHCO3 0.1%): 15.7±0.3 mm | length of the root ([5]; NaHCO3 0.3%): 3.7±0.3 mm | length of the shoot ([5]; NaHCO3 0.3%): 6.7±0.3 mm | length of the root ([5]; NaHCO3 1%): 0±0 mm | length of the shoot ([5]; NaHCO3 1%): 0±0 mm | length of the embryonic axis (shoot) ([6]; NaHCO3 0.003%): 66.3±4.1 mm | length of the root ([6]; NaHCO3 0.003%): 37.0±1.5 mm | length of the embryonic axis (shoot) ([6]; NaHCO3 0.01%): 74.0±1.5 mm | length of the root ([6]; NaHCO3 0.01%): 71.3±1.9 mm | length of the embryonic axis (shoot) ([6]; NaHCO3 0.03%): 60.0±3.1 mm | length of the root ([6]; NaHCO3 0.03%): 80.7±5.9 mm | length of the embryonic axis (shoot) ([6]; NaHCO3 0.1%): 66.7±3.4 mm | length of the root ([6]; NaHCO3 0.1%): 22.0±1.5 mm | length of the embryonic axis (shoot) ([6]; NaHCO3 0.3%): 19.3±0.7 mm | length of the root ([6]; NaHCO3 0.3%): 7.3±1.3 mm | length of the embryonic axis (shoot) ([6]; NaHCO3 1%): 0±0 mm | length of the root ([6]; NaHCO3 1%): 0±0 mm | development of the root [7, 8]: 21.0±0.8 mm | development of the shoot [7, 8]: 33.4±1.1 mm | length of the root [7, 9]: 5.4±1.1 mm | length of the shoot [7, 9]: 26.0±1.5 mm | development of the root [7, 10]: 0 mm | development of the shoot [7, 10]: 0 mm

O=C(O)Cc1c[nH]c2ccccc12 [IAA, indole-3-acetate]
length of the root ([1]; Example 9, IAA 10^−4 M alone): 11 mm | length of the shoot ([1]; Example 9, IAA 10^−4 M alone): 8 mm | length of the root ([1]; Example 9, IAA 10^−5 M alone): 22 mm | length of the shoot ([1]; Example 9, IAA 10^−5 M alone): 13 mm | length of the root ([4]; Example 8, IAA 10^−4 M alone): 30 mm | length of the shoot ([4]; Example 8, IAA 10^−4 M alone): 20 mm | length of the root ([4]; Example 8, IAA 10^−5 M alone): 41 mm | length of the shoot ([4]; Example 8, IAA 10^−5 M alone): 23 mm
